Source: PMC8584931 (International Journal of Molecular Sciences, 2021)

Experiments:
[1] = system: PC-3 cells; experiment: cells; settings: Homo sapiens, PC-3, 48 h, read-out: PC-3 IV (intermediate value)
Protocol: (§1) Cell viability was evaluated by MTT assay.
(§2) It is necessary for this IV to have a method of comparison for the combination of experiments.
(§3) Human colorectal cancer HT-29 and prostate cancer PC-3 cell lines were obtained from the American Type Culture Collection (ATCC; Manassas, VA, USA) and maintained according to ATCC’s recommendations at 37 °C and 5% CO2 in appropriate medium supplemented with 10% foetal bovine serum, 100 U/mL penicillin G and 100 µg/mL streptomycin. Cells were maintained in the logarithmic growth phase at all times. The media were changed every 2 days and trypsinised with 0.25% trypsin–EDTA. A total of 100 µL of HT-29 cells (7500 cells/well) or PC-3 cells (5000 cells/well) were seeded in 96-well plates and allowed to adhere overnight before drug exposure. After 24 h, the cell culture media were replaced with 100 µL of drug-containing media. […]
(§4) The IV value was first determined for each drug alone in HT-29 and PC-3 cells. […] Both Drug A and Drug B concentrations were variable, and the combined effects of equipotent concentrations (fixed ratio) of the IV values for each drug were evaluated.
(§5) For the MTT protocol, after drug treatment, the cell medium was removed and 100 µL/well of MTT solution (0.5 mg/mL in PBS) was added. […] Absorbance was measured at 570 nm in an automated microplate reader (Tecan Infinite M200, Tecan Group Ltd., Männedorf, Switzerland). […]

[2] = system: HT-29 cells; experiment: cells; settings: Homo sapiens, HT-29, 48 h, read-out: HT-29 IV (intermediate value)
Protocol: as §1, §2, §3, §4, §5

CC(=O)O[C@H]1C(=O)[C@@]2(C)[C@H]([C@H](OC(=O)c3ccccc3)[C@]3(O)C[C@H](OC(=O)[C@H](O)[C@@H](NC(=O)c4ccccc4)c4ccccc4)C(C)=C1C3(C)C)[C@]1(OC(C)=O)CO[C@@H]1C[C@@H]2O [PTX, paclitaxel] was tested. Which IC50 [1] did it give?
The IC50 was 0.01 µM.

With O=c1[nH]cc(F)c(=O)[nH]1 [5-FU, 5-fluorouracil] as the compound, how does the IC50 [2] read?
The IC50 was 2.58 µM.
